Experiments:
[1] = system: SK-RC-52.hFAP tumors; test: 177Lu biodistribution at different radioisotope molar activities; format: in vivo, mouse; details: 0.2 vs 4.8 MBq/nmol; 24 h post injection
Protocol: Prior to the biodistribution study at different specific activities (FIG. 19), precursors (20 nmol) were dissolved in milliQ water and diluted with sodium acetate (1 M in water, pH=4.5). ^177Lu solution (4 or 96 MBq) were added and the mixture was heated at 90 °C for 10 minutes, followed by dilution with PBS to achieve final volume of 400 μL (4 doses of 100 μL each, corresponding to 0.2 MBq/nmol and 4.8MBq/nmol, respectively).
Results of the ^177Lu biodistribution study at different specific activities: low (0.2 MBq/nmol) and high (4.8 MBq/nmol) with ^177Lu Tri-ESV6-DOTAGA are shown in FIG. 19.

[2] = molecular target: T1, recombinant hFAP (Homo sapiens, UniProt Q12884); test: hFAP inhibition assay (Z-Gly-Pro-AMC substrate); format: biochemical
T1 sequence (Q12884 26-760 limits assumed): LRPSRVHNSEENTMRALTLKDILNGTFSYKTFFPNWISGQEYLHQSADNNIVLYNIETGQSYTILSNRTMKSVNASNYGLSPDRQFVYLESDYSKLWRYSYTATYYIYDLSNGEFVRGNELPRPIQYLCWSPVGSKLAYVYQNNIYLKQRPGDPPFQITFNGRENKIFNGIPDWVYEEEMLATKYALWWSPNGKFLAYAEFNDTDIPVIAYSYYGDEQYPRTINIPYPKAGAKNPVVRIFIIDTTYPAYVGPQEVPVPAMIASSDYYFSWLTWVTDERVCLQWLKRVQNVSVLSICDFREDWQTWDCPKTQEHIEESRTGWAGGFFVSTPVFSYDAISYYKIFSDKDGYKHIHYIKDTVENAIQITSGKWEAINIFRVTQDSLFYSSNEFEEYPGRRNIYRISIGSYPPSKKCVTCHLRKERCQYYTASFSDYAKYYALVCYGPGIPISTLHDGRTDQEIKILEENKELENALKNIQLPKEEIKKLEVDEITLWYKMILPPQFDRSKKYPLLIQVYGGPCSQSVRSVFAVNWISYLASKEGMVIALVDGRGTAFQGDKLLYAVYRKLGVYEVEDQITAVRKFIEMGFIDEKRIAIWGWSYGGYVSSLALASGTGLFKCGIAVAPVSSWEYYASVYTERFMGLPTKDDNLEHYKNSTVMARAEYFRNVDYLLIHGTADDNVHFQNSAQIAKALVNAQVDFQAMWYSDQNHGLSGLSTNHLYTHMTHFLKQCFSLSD
Protocol: (§1) Enzymatic activity of hFAP on the Z-Gly-Pro-AMC substrate was measured at room temperature on a microtiter plate reader, monitoring the fluorescence at an excitation wavelength of 360 nm and an emission wavelength of 465 nm. The reaction mixture contained substrate (20 μM), protein (66 μM, constant), assay buffer (50 mM Tris, 100 mM NaCl, and 1 mM EDTA, pH=7.4), and inhibitors with serial dilution from 167 nM to 80 fM, 1:2 in a total volume of 20 μL. Experiments were performed in triplicate, and the mean fluorescence values were fitted using Prism 7. The value is defined as the concentration of inhibitor required to reduce the enzyme activity by 50% after addition of the substrate [FIG. 1 and FIG. 8].
According to the same procedure, further comparative inhibition assays with trimeric binders having inter alia different lengths of linker group B and/or different payload groups C were performed with compounds Tri-ESV6-ValCit-MMAE (14), Tri-ESV6-linker-DOTAGA (13) and diastereoisomers of Tri-ESV6-DOTAGA (11, 12) [FIG. 18]. Comparative hFAP inhibition assays with tetravalent binders 10 and 29 were also performed [FIG. 20].
as §1, with “substrate.” for “substrate [FIG. 1 and FIG. 8].”
as §1, with “e) Inhibition assay with Tri-ESV6-DOTAGA, Tetra-ESV6-DOTAGA, Hexa-ESV6-DOTAGA, Octa-ESV6-DOTAGA, ESV6-L-DOTAGA and BI-ESV6-L-DOTAGA. Enzymatic” for “Enzymatic”, “substrate.” for “substrate [FIG. 1 and FIG. 8].”

For `N#CC1CC(F)(F)CN1C(=O)CNC(=O)c1ccnc2c(NC(=O)CCC(=O)NCCNC(=O)CCOCC(COCCC(=O)NCCNC(=O)CCC(=O)Nc3cccc4c(C(=O)NCC(=O)N5CC(F)(F)CC5C#N)ccnc34)(COCCC(=O)NCCNC(=O)CCC(=O)Nc3cccc4c(C(=O)NCC(=O)N5CC(F)(F)CC5C#N)ccnc34)NC(=O)CCC(C(=O)O)N3CCN(CC(=O)[O-])CCN(CC(=O)[O-])CCN(CC(=O)[O-])CC3)cccc12.[177Lu+3]` (stereo not drawn) [^177Lu-Tri-ESV6-DOTAGA], the “effect of molar activity on biodistribution, in words” value [1] was “does not significantly interfere with the advantageous biodistribution”.

With `N#C[C@@H]1CC(F)(F)CN1C(=O)CNC(=O)c1ccnc2c(NC(=O)CCC(=O)NCCNC(=O)CCOCC(COCCC(=O)NCCNC(=O)CCC(=O)Nc3cccc4c(C(=O)NCC(=O)N5CC(F)(F)C[C@H]5C#N)ccnc34)(COCCC(=O)NCCNC(=O)CCC(=O)Nc3cccc4c(C(=O)NCC(=O)N5CC(F)(F)C[C@H]5C#N)ccnc34)NC(=O)CCC(C(=O)O)N3CCN(CC(=O)O)CCN(CC(=O)O)CCN(CC(=O)O)CC3)cccc12` (stereo partly drawn) [Tri-ESV6-DOTAGA, 2,2′,2″-(10-(19-carboxy-1-((4-((2-((S)-2-cyano-4,4-difluoropyrrolidin-1-yl)-2-oxoethyl)carbamoyl)quinolin-8-yl)amino)-14,14-bis((3-((2-(4-((4-((2-((S)-2-cyano-4,4-difluoropyrrolidin-1-yl)-2-oxoethyl)carbamoyl)quinolin-8-yl)amino)-4-oxobutanamido)ethyl)amino)-3-oxopropoxy)methyl)-1,4,9,16-tetraoxo-12-oxa-5,8,15-triazanonadecan-19-yl)-1,4,7,10-tetraazacyclododecane-1,4,7-triyl)triacetic acid] the IC50 ([2]; Z-Gly-Pro-AMC 20 μM, protein 66 μM, pH 7.4, room temperature) was 0.012 nM, the “IC50 / inhibitory activity, comparison in words” value ([2]; recombinant hFAP) was “remarkably lower IC50 compared to ESV6-DOTAGA, Bi-ESV6-DOTAGA and FAP-2286” and the “lower IC50 compared to Tri-ESV6-PEG12-DOTAGA” value ([2]; vs Tri-ESV6-PEG12-DOTAGA) was ~ 1000 fold. For the same compound, the “improvement in IC50 as compared to Bi-ESV6-DOTAGA” value ([2]; vs bivalent Bi-ESV6-DOTAGA) was 10 fold and the “improvement in IC50 as compared to ESV6-DOTAGA” value ([2]; vs monovalent ESV6-DOTAGA) was 43 fold.

Source: patent US20260364214A1, “MULTIVALENT FIBROBLAST ACTIVATION PROTEIN LIGANDS FOR TARGETED DELIVERY APPLICATIONS” (Philochem AG, priority 2022, published 2026)
